Legend:
[1] = test system: EntF*-mediated E-cadherin downregulation in HCT-8 cells; assay: Antagonist activity analysis by Western blot; type: cell-based
Method: HCT-8, HT-29, and HT-116 cells were grown in DMEM medium supplied with 10% fetal bovine serum (FBS) and 1% penicillin-streptomycin. Caco-2 cells were grown in DMEM medium supplied with 10% FBS, 1% non-essential amino acid NEAA), and 1% penicillin-streptomycin. Cells were cultured at 37 °C and 5% CO2. As cells reached confluency, they were detached using 0.25% Trypsin-EDTA.
For Western blot analyses, HCT-8 (n = 15), HCT-116 (n = 12), Caco-2 (n = 6), and HT-29 (n = 12) cells were seeded in 6-well plates at a density of 1 × 10^6 cells/well. Twenty-four hours after seeding, all cell lines were treated with 1 μM EntF* or a placebo solution. HCT-8 cells were also tested for responsiveness to 1 μM EntF* synthetic alanine-derived analogs. For antagonist activity analysis, HCT-8 cells were treated with 1 μM Nef-M1 or 1 μM EntF*A1 alone or in combination with 500 nM EntF*. After 24 h, cells were detached from the surface and lysed in RIPA buffer (Thermo Scientific). Protein concentration was determined using the modified Lowry protein assay kit (Thermo Scientific), according to the manufacturer’s instructions. […]
The Kolmogorov-Smirnov test was used to assess if data obtained were normally distributed. […] Cohen’s d values were calculated as a measure of the effect size when similar standard deviations for both groups were found, and sample sizes were the same.

[2] = Serum kinetic profile and daily EntF* exposure after i.p. injection; type: in vivo, female Swiss nu/nu mice
Method: Fifty microliters of serum were mixed with 150 μL 0.5% formic acid in acetonitrile. After sonication for 5 min, samples were vortexed for 5 s, then heated for 30 s at 100 °C. The solution was vortexed and centrifuged for 20 min at 20,000g at 4 °C. The supernatant was purified using solid phase extraction (SPE) on HyperSep C18 plates (Thermo Fisher Scientific, Belgium), previously conditioned with acetonitrile and equilibrated with 75% acetonitrile in water, containing 0.375% formic acid. After loading 150 μL of each sample, 120 μL eluent were collected and organic solvents evaporated using nitrogen (1 L/min) for 5 min. The resulting samples were further diluted with 30 μL of BSA-based anti-adsorption solution, and analyzed by LC-MS.
EntF* was detected and quantified on a Waters Acquity® UPLC H-class system, connected to a Waters Xevo™ TQ-S triple quadrupole mass spectrometer with electrospray ionization (operated in positive ionization mode). Autosampler tray and column oven were kept at 10 ± 5 °C and 60 ± 5 °C, respectively. Chromatographic separation was achieved on a Waters Acquity® UPLC BEH Peptide C18 column (300 Å, 1.7 μm, 2.1 mm × 100 mm). The mobile phases consisted of 93/2/5 water/acetonitrile/DMSO (V/V/V) containing 0.1% formic acid (mobile phase A) and 2/93/5 water/acetonitrile/DMSO (V/V/V) containing 0.1% formic acid (mobile phase B), and the flow rate was set to 0.5 mL/min. A 10-μL aliquot from each sample was injected. The gradient program started with 80% of mobile phase A for 1 min, followed by a linear gradient to 40% of mobile phase A for 3.5 min. Gradient was then changed to 14.2% mobile phase A at 5 min, followed by a 1 min equilibration, before starting conditions were applied. EntF* retention time was between 4.25 and 4.45 min.
To calculate daily peptide exposure, female Swiss nu/nu mice (n = 14) were i.p. injected with 25 μL of 100 μM EntF*, their serum withdrawn at different time points and analyzed by LC1-MS1. A distribution and early exponential phase (α, 0-30 min), followed by a terminal elimination phase (β, 30–180 min) could be distinguished. The exposure was determined over a period of 24 h (x) as follows: ExposurenMxmin=∫030Ae^-αt+∫30xBe^-βt .

[3] = Formation of EntF* from EntF in HBSS (buffer); type: in vitro ADME; conditions: for Formation rate, HBSS: EntF in HBSS; for EntF* Conc formed from EntF / EntF* without metabolisation, Conc / EntF*/EntF: single run
[4] = HBSS, initial concentration EntF 31.82 µM, time 0
[5] = HBSS, initial concentration EntF 31.82 µM, time 1
[6] = HBSS, initial concentration EntF 31.82 µM, time 5
[7] = HBSS, initial concentration EntF 31.82 µM, time 10
[8] = HBSS, initial concentration EntF 31.82 µM, time 30
[9] = HBSS, initial concentration EntF 31.82 µM, time 60
[10] = HBSS, initial concentration EntF 31.82 µM, time 120
[11] = HBSS, initial concentration EntF 31.82 µM, time 180

## CC(C)C[C@@H]1NC(=O)[C@H](CO)NC(=O)[C@H](Cc2ccccc2)NC(=O)[C@H](C(C)C)NC(=O)[C@@H](NC(=O)[C@H](CCC(=O)O)NC(=O)[C@@H](NC(=O)[C@H](CC(C)C)NC(=O)[C@H](CC(N)=O)NC(=O)[C@@H](N)CO)C(C)C)CSSC[C@@H](C(=O)N[C@@H](CC(N)=O)C(=O)O)NC(=O)[C@H](CCCCN)NC(=O)[C@H](CCCCN)NC(=O)[C@H](Cc2ccccc2)NC1=O (single isomer, unassigned) [EntF*]
[1]; HCT-8 cells, EntF* only, 24 h, relative to control, n = 15
  E-cadherin level, EntF* only: 62%
[1]; mean of the replicates
  Relative E-cadherin level (% of control), mean: 62.0
[2]; after 100 nmol kg-1 EntF* i.p. injection
  Daily exposure during CRC experiment, Exposure (nM*min), Distribution phase: 74.91 nM·min
[2]; after 100 nmol kg-1 EntF* i.p. injection, 5 min, mean of n = 4
  Distribution phase, serum level, Average: 4.2292
[2]; after 100 nmol kg-1 EntF* i.p. injection, 10 min, mean of n = 4
  Distribution phase, serum level, Average: 2.596
[2]; after 100 nmol kg-1 EntF* i.p. injection, 15 min, mean of n = 4
  Distribution phase, serum level, Average: 2.427
[2]; after 100 nmol kg-1 EntF* i.p. injection, 60 min, mean of n = 4
  Elimination phase, serum level, Average: 0.2851
[2]; after 100 nmol kg-1 EntF* i.p. injection, 120 min, mean of n = 4
  Elimination phase, serum level, Average: 0.389
[2]; female, Swiss nu/nu, mouse, serum, ip, after 100 nmol kg-1 EntF* i.p. injection, 30 min, mean of n = 4, read-out: Distribution phase / Elimination phase, serum level, Average
  level at time molar at 0.5 h: 0.854 nM
[2]; female, Swiss nu/nu, mouse, serum, ip, after 100 nmol kg-1 EntF* i.p. injection, 180 min, mean of n = 4, read-out: Elimination phase, serum level, Average
  level at time molar at 3 h: 0.195 nM
[2]; serum, 5 min after i.p. injection, Xgem (mean of 4 values)
  EntF* serum concentration: 4.2292 nM
[2]; serum, 10 min after i.p. injection, Xgem (mean of 4 values)
  EntF* serum concentration: 2.5962 nM
[2]; serum, 15 min after i.p. injection, Xgem (mean of 4 values)
  EntF* serum concentration: 2.4271 nM
[2]; serum, 30 min after i.p. injection, Xgem (mean of 4 values)
  EntF* serum concentration: 0.8544 nM
[2]; serum, 60 min after i.p. injection, Xgem (mean of 4 values)
  EntF* serum concentration: 0.2851 nM
[2]; serum, 120 min after i.p. injection, Xgem (mean of 4 values)
  EntF* serum concentration: 0.3890 nM
[2]; serum, 180 min after i.p. injection, replicate X1,2
  EntF* serum concentration: 0.4699 nM
[2]; serum, 180 min after i.p. injection, replicate X2,2
  EntF* serum concentration: 0.5336 nM
[3]; value X1
  Formation rate, HBSS: 0.0321 %*min-1
[3]; value X2
  Formation rate, HBSS: 0.0130 %*min-1
[3]; value X3
  Formation rate, HBSS: 0.0600 %*min-1
[3]; value X4
  Formation rate, HBSS: 0.0499 %*min-1
[3]; value X5
  Formation rate, HBSS: 0.0573 %*min-1
[3]; value X6
  Formation rate, HBSS: 0.0440 %*min-1
[3]; value X7
  Formation rate, HBSS: 0.0469 %*min-1
[3]; HBSS, initial concentration EntF 31.82 µM, average over the time points 1-180
  Rico, Average: 0.0433 %*min-1
[3]; [4]
  EntF* Conc formed from EntF: 0.00 µM
  EntF* without metabolisation, Conc: 0.00 µM
[3]; [5]
  EntF* without metabolisation, Conc: 0.01 µM
  EntF*/EntF: 0.0321%
[3]; [6]
  EntF* Conc formed from EntF: 0.02 µM
  EntF* without metabolisation, Conc: 0.02 µM
  EntF*/EntF: 0.0652%
[3]; [7]
  EntF* Conc formed from EntF: 0.19 µM
  EntF* without metabolisation, Conc: 0.19 µM
  EntF*/EntF: 0.60%
[3]; [8]
  EntF* Conc formed from EntF: 0.48 µM
  EntF* without metabolisation, Conc: 0.48 µM
  EntF*/EntF: 1.50%
[3]; [9]
  EntF* Conc formed from EntF: 1.09 µM
  EntF* without metabolisation, Conc: 1.09 µM
  EntF*/EntF: 3.44%
[3]; [10]
  EntF* Conc formed from EntF: 1.68 µM
  EntF* without metabolisation, Conc: 1.68 µM
  EntF*/EntF: 5.28%
[3]; [11]
  EntF* Conc formed from EntF: 2.69 µM
  EntF* without metabolisation, Conc: 2.69 µM
  EntF*/EntF: 8.45%
[3]; HBSS, remark in sheet HBSS
  stability of EntF* in HBSS: EntF* is stable in HBSS
